{"source": "patent US20020127263A1", "about": "“Peroxisome proliferator-acitvated receptor gamma ligand eluting medical device” (priority 2001, published 2002)", "key": {"[1]": {"tested_on": "HCASMCs", "experiment": "Ciglitazone cytotoxicity against HCASMCs (lactate dehydrogenase)", "type": "cell-based, Human", "settings": "HCASMC, 0.001 μg/mL to 10 μg/mL Ciglitazone, after 24 hours, FIG. 1c", "experimental": "(§1) Ciglitazone cytotoxicity against HCASMCs was evaluated by seeding 24 well cell culture plates with 5.0×10^5HCASM cells/mL of cell culture media containing from 0.001 μg/mL to 10 μg/mL of Ciglitazone. Samples were taken after 24 hours and tested for lactate dehydrogenase […] concentration using methods known to those having ordinary skill in the art. Elevated LDL levels indicates cytotoxicity. FIG. 1c graphically depicts the cytotoxicity testing results."}, "[2]": {"tested_on": "Human coronary artery endothelial cells (HCAEC)", "experiment": "HCAEC proliferation inhibition by Ciglitazone", "type": "cell-based", "settings": "Endothelial cell, day four, both cell culture schemes, FIG. 2a", "experimental": "Human coronary artery endothelial cells (HCAEC) were seeded in 24 well polystyrene tissue culture plates at a density of 5×10^3 cells per well. Two different feeding strategies and reading strategies were employed. Strategy 1: Cells were plated in cell culture media containing various concentrations of Ciglitazone and incubated at 37° C. for 48 hours. After the initial 48 hour incubation, the Ciglitazone containing plating media was changed and the cells were fed with drug free media and incubated for an additional 48 hours and then read. Strategy 2: Cells were plated in cell culture media containing various concentrations of Ciglitazone and incubated at […] for 48 hours. After the initial 48 hour incubation, the Ciglitazone-containing plating media was changed and the cells were fed with Ciglitazone-containing media and incubated for an additional 48 hours and then read. On day four cultures were analyzed to determine the proliferation inhibition effects of Ciglitazone. […] graphically depicts the percent inhibition at Ciglitazone levels between 0.001 μg/mL to 50 μg/mL for both cell culture schemes. It can be seen from FIG. 2a that significant HCAEC inhibition (>50% inhibition) begins at a dosage of 5 μg/mL and rises dramatically to nearly 100% at 10 μg/mL. FIG. 2b graphically depicts the same results in bar graph form based on cell counts."}, "[3]": {"tested_on": "Human coronary smooth muscles cells (HCASMC)", "experiment": "HCASMC proliferation inhibition by Ciglitazone", "type": "cell-based", "settings": "day four, both cell culture schemes, FIG. 1a", "experimental": "Human coronary smooth muscles cells (HCASMC) were seeded in 24 well polystyrene tissue culture plates at a density of 5×10^3 cells per well. Two different feeding and reading strategies were employed. Strategy 1: Cells were plated in cell culture media containing various concentrations of Ciglitazone and incubated at 37° C. for 48 hours. After the initial 48 hour incubation, the Ciglitazone containing plating media was changed and the cells were fed with drug free media and incubated for an additional 48 hours and then read. Strategy 2: Cells were plated in cell culture media containing various concentrations of Ciglitazone and incubated at […] for 48 hours. After the initial 48 hour incubation, the Ciglitazone-containing plating media was changed and the cells were fed with Ciglitazone-containing media and incubated for an additional 48 hours and then read. On day four cultures were analyzed to determine the proliferation inhibition effects of Ciglitazone. FIG. 1a graphically depicts the percent inhibition at Ciglitazone levels between 0.001 μg/mL to 50 μg/mL for both cell culture schemes. It can be seen from FIG. 1a that significant HCASMC inhibition (>50% inhibition) begins at a dosage of 10 μg/mL and rises dramatically to nearly 100% at 50 μg/mL. FIG. 1b graphically depicts the same results in bar graph form based on cell counts."}, "[4]": {"tested_on": "HCAECs", "experiment": "Ciglitazone cytotoxicity against HCAECs (lactate dehydrogenase)", "type": "cell-based, Human", "settings": "HCAEC, 0.001 μg/mL to 10 μg/mL Ciglitazone, after 24 hours, FIG. 2c", "experimental": "as §1, with “HCAECs” for “HCASMCs”, “5.0×10^5 HCAE” for “5.0×10^5HCASM”, “indicate” for “indicates”, “2c” for “1c”"}}, "data": [{"smiles": "CC1(COc2ccc(CC3SC(=O)NC3=O)cc2)CCCCC1", "note": "(stereo not drawn) [Ciglitazone]", "values": [{"measurement": "cytotoxicity (lactate dehydrogenase concentration)", "setting": "[1]", "result": "No cytotoxicity was detected"}, {"measurement": "inhibition at 5 µg/mL", "setting": "[2]; 5 μg/mL Ciglitazone", "result": "> 50", "unit": "%"}, {"measurement": "inhibition at 10 µg/mL", "setting": "[2]; 10 μg/mL Ciglitazone", "result": "~100", "unit": "%"}, {"measurement": "inhibition at 10 µg/mL", "setting": "[3]; 10 μg/mL Ciglitazone", "result": "> 50", "unit": "%"}, {"measurement": "inhibition at 50 µg/mL", "setting": "[3]; 50 μg/mL Ciglitazone", "result": "~100", "unit": "%"}, {"measurement": "cytotoxicity (lactate dehydrogenase concentration)", "setting": "[4]", "result": "No cytotoxicity was detected"}]}]}
